This is an account of results in BindingDB's records for doi:10.1021/jm030528p (Encysive Pharmaceuticals, 2004).

As usually defined, the pIC50 is the IC50 on a negative log10 scale, so that one unit is a factor of ten.

The experiment deals with Endothelin-1 receptor (Homo sapiens) (UniProt P25101). In words: Displacement of [125I]ET-1 from Endothelin A receptor. Background: Displacement assays read how much labelled ligand stays bound in the presence of the test substance.

pIC50: −log10 of the molar value.

Endothelin-1 receptor (Homo sapiens), sequence (P25101 whole entry, looked up): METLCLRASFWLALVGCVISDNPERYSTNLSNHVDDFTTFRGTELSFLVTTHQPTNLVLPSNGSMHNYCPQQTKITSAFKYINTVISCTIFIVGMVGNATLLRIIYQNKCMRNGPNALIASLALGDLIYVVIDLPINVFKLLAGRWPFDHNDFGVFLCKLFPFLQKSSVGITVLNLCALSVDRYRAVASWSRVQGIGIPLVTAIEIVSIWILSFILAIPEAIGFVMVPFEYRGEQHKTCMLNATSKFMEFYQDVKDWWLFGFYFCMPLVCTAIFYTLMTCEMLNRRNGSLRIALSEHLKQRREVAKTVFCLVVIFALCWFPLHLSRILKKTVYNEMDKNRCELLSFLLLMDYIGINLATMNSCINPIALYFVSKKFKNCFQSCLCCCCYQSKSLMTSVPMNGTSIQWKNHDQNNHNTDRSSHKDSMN

As to `Cc1cc(C)c(NC(=O)c2sccc2S(=O)(=O)Nc2onc(C)c2Cl)c(C(C)N=O)c1` (stereo unspecified) [3-(4-Chloro-3-methyl-isoxazol-5-ylsulfamoyl)-thiophene-2-carboxylic acid [2-(1-hydroxyimino-ethyl)-4,6-dimethyl-phenyl]-amide], the pIC50 was 10.70.
